Measurements as given in US20250177329A1, “GPR120 AGONISTS FOR THE TREATMENT OF INFLAMMATORY BOWEL DISEASE” (Dompe' Farmaceutici SPA, priority 2022, published 2025).

Assays:
GPR40 = molecular target: T1, GPR40 (Mus musculus, UniProt Q76JU9); experiment: Co-immunoprecipitation of β-arrestin 2 with GPR40 in colon lysates of DSS mice; assay type: in vivo; details: pooled colon lysates, day 39; compared to DSS or DSS+vehicle
T1 construct: Colon lysates (˜900 μg proteins) from 6 mice of each experimental group were pooled; from tissue; host or cells: mouse colon (DSS colitis model)
Description: (§1) The efficiency of DFL in activating the GPR120 and/or GPR40 receptors was tested.
(§2) Agonist-induced GPR120 can engage multiple signalling pathways to regulate distinct physiological outcomes. After ligand binding, B-arrestins, such as B-arrestin 2 can associate with the cytoplasmic domains of GPR120 and couple the receptor to specific downstream signaling pathways (FIG. 9). For this reason, we verified the agonist efficiency in activating GPR120 and GPR40 by immunoprecipitation. Colon lysates (˜900 μg proteins) from 6 mice of each experimental group were pooled, precleared with protein A/G plus-agarose (Santa Cruz) and then incubated with the antibody used for immunoprecipitation (anti-GPR120 or anti-GPR40, Abcam) at 4° C. for 16 h, followed by incubation with protein A/G plus-agarose for 5 h. The agarose beads were then collected by centrifugation, washed four times with lysis buffer, and heated to 95° C. for 5 min after adding Laemmli buffer. The resulting immunoprecipitates were separated by SDS-PAGE and probed with the anti-β-arrestin 2 antibody (Santa Cruz).
(§3) Upon western blotting, a densitometric analysis of the blots was performed using Image J. FIGS. 10 and 11 show the ratio between co-immunoprecipitated β-arrestin 2 and GPR120 (FIG. 10) or GPR40 levels (FIG. 11) and the results of the blotting.

human GPR120 [1] = molecular target: T2, human GPR120 (Homo sapiens, UniProt Q5NUL3); experiment: Activation of GPR120 receptor; assay type: cell-based
T2 sequence (Q5NUL3 1-361): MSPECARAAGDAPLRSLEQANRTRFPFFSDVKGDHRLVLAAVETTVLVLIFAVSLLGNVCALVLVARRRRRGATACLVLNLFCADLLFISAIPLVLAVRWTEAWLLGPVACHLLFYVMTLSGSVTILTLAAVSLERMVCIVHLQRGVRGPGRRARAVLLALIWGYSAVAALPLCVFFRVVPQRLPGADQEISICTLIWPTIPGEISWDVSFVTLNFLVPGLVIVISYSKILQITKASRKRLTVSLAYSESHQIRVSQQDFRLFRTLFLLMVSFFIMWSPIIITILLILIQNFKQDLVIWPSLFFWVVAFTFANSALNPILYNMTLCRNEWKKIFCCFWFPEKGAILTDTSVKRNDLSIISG

[2] = Biodistribution in colon after single oral dose; assay type: in vivo; details: PO 90.0 mg/kg, male Swiss albino mice
Description: The biodistribution of DFL23806 in the proximal and distal colon was evaluated in male Swiss albino mice following single dose oral administration of DFL23806 90 mg/kg.
Colon concentration (ng/g) of DFL23806 after PO (90.0 mg/kg) dose administration to male Swiss albino mice.
Colon/Plasma ratio of DFL23806 after PO (90.0 mg/kg) dose administration to male Swiss albino mice.

GPR120 = molecular target: T3, GPR120 (Mus musculus, UniProt Q7TMA4); experiment: Co-immunoprecipitation of β-arrestin 2 with GPR120 in colon lysates of DSS mice; assay type: in vivo
T3 construct: Colon lysates (˜900 μg proteins) from 6 mice of each experimental group were pooled; from tissue; host or cells: mouse colon (DSS colitis model)
T3 sequence (Q7TMA4 1-361): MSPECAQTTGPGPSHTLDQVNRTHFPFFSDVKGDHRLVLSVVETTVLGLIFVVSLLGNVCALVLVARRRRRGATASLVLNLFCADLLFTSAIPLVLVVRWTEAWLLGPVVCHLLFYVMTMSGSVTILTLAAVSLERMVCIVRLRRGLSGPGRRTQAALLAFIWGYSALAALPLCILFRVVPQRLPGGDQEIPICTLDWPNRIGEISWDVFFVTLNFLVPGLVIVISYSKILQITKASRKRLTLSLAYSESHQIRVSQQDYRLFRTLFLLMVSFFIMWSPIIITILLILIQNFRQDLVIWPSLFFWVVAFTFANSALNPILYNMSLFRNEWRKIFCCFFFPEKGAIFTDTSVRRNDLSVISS
Description: as §1, §2, §3

[3] = Plasma pharmacokinetics after single oral administration to mice; assay type: in vivo; details: male, CD1, mouse, single oral dose (Dose_PO: 10.0-90.0 mg/kg)
Excerpt: The purpose of this study was to evaluate plasma and tissue exposure of the following compounds after a single oral administration to mice: • 7-(3-(N-(4-fluoro-2,6-dimethylphenyl)sulfamoyl)phenyl)heptanoic acid (indicated below as DFL23806), • 7-(3-(N-(4-chloro-2,6-dimethylphenyl)sulfamoyl)phenyl)heptanoic acid (indicated below as DFL23914) • 7-(3-(N-(2,6-dimethyl-4-(trifluoromethyl)phenyl)sulfamoyl)phenyl)heptanoic acid (indicated below as DFL23922) • 7-(3-(N-(6-fluoro-4-methyl-[1,1′-biphenyl]-3-yl)sulfamoyl)phenyl)heptanoic acid (indicated below as DFL23916) • 7-(3-(N-(5-fluoro-3-methyl-[1,1′-biphenyl]-2-yl)sulfamoyl)phenyl)heptanoic acid (indicated below as DFL23917) • 7-(3-{[4-fluoro-2-methyl-5-(thiophen-2-yl)phenyl]sulfamoyl}phenyl)heptanoic acid (indicated below as DFL24102) […]
A retro-orbital, composite blood sampling at pre-dose or after dosing at 30 min, 1, 2, 6, 8 and 24 hours (three mice/time point) was carried out for the plasma pharmacokinetic assessment. Blood samples were collected in heparinized collection tubes. Samples were taken immediately onto ice and kept cool until centrifugation (10000 g for 3 minutes at about +4° C.). About 50 μL of plasma were stored in a freezer at −80° C. pending analysis.
After samples collection, bioanalysis for concentrations of the test compounds were done using HPLC-MS/MS methods and pharmacokinetic analysis of the compounds in plasma and tissues was performed according to standard non-compartmental approach using Watson system (v 7.6, Thermo Fisher Scientific Waltham, MA, USA) on mean concentration data.

human GPR120 [4] = molecular target: T2, human GPR120; experiment: Internalization of GPR120 (Enzyme Fragment Complementation, DiscoverX); assay type: cell-based; details: at 100 μM

T1 sequence (Q76JU9 whole entry): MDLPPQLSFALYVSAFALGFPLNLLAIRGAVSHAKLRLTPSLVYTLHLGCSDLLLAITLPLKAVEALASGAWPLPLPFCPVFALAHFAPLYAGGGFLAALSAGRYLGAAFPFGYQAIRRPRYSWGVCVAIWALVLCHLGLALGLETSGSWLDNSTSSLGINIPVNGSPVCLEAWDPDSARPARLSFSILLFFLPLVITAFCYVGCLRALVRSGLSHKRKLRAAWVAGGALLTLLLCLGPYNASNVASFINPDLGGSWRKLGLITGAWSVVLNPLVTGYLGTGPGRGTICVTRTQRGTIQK

GPR40 and β-arrestin 2 association (ratio co-immunoprecipitated β-arrestin 2 / GPR40) (GPR40): no increase | AC50 (human GPR120 [1]): 3.9 µM | Colon/Plasma ratio, Mean ([2]; 4.00 h, 90 mg/kg): 64.20 | Kp at 1 h ([2]; mouse, colon/plasma, 1.00 h, read-out: Colon/Plasma ratio, Mean): 1.63 | Kp at 4 h ([2]; mouse, colon/plasma, 4.00 h, read-out: Colon/Plasma ratio, Mean): 64.2 | concentration at 1 h ([2]; mouse, colon, 1.00 h): 68.3 ng/g | concentration at 4 h ([2]; mouse, colon, 4.00 h): 3570 ng/g | selectivity GPR120 versus GPR40 (GPR120; from β-arrestin 2 co-immunoprecipitation with GPR120 and GPR40): GPR120 selective agonist | association between GPR120 and β-arrestin 2 (ratio co-immunoprecipitated β-arrestin 2 / GPR120) (GPR120; pooled colon lysates, day 39, DFL 90 mg/kg, compared to control groups or DSS+5-ASA 60 mg/Kg): higher compared to control groups | AUC(0-inf) [3]: 405 ng·h/mL | AUC(0-t) [3]: 354 ng·h/mL | Cmax [3]: 106 ng/mL | Tmax [3]: 30 min | half-life [3]: 348 min | efficacy of internalization of the human GPR120 receptor (human GPR120 [4]): 59.1%
SMILES: Cc1cc(F)cc(C)c1NS(=O)(=O)c1cccc(CCCCCCC(=O)O)c1 [DFL23806, 7-(3-(N-(4-fluoro-2,6-dimethylphenyl)sulfamoyl)phenyl)heptanoic acid]
